Reference: patent US9120784B2, “1,3,4-oxadiazoles-2-thio azetidine derivatives as sphingosine-1 phosphate receptors modulators” (Allergan, Inc., priority 2012, dated 2015)

Target: T1, human S1P1 receptor (Homo sapiens, UniProt P21453)
T1 construct: expressed in transfected cells; membranes used
Assay: GTP γ35S binding assay for S1P1 activity
Type: biochemical
Details: membranes of cells stably expressing the S1P1 receptor, test compound 0.08 to 5,000 nM, read-out: S1P1 EC50 (nM) % inhibition
Description: Compounds were synthesized and tested for S1P1 activity using the GTP γ^35S binding assay. These compounds may be assessed for their ability to activate or block activation of the human S1P1 receptor in cells stably expressing the S1P1 receptor.
GTP γ^35S binding was measured in the medium containing (mM) HEPES 25, pH 7.4, MgCl2 10, NaCl 100, dithiothreitol 0.5, digitonin 0.003%, 0.2 nM GTP γ^35S, and 5 μg membrane protein in a volume of 150 μl. Test compounds were included in the concentration range from 0.08 to 5,000 nM unless indicated otherwise. Membranes were incubated with 100 μM 5′-adenylylimidodiphosphate for 30 min, and subsequently with 10 μM GDP for 10 min on ice. Drug, solutions and membrane were mixed, and then reactions were initiated by adding GTP γ^35S and continued for 30 min at 25° C. Reaction mixtures were filtered over Whatman CF/B filters under vacuum, and washed three times with 3 mL of ice-cold buffer (HEPES 25, pH7.4, MgCl2 10 and NaCl 100). Filters were dried and mixed with scintillant, and counted for ^35S activity using […]. Agonist-induced GTP γ^35S binding was obtained by subtracting that in the absence of agonist. Binding data were analyzed using a non-linear regression method. In case of antagonist assay, the reaction mixture contained 10 nM […] in the presence of test antagonist at concentrations ranging from 0.08 to 5000 nM.

T1 sequence (P21453 whole entry): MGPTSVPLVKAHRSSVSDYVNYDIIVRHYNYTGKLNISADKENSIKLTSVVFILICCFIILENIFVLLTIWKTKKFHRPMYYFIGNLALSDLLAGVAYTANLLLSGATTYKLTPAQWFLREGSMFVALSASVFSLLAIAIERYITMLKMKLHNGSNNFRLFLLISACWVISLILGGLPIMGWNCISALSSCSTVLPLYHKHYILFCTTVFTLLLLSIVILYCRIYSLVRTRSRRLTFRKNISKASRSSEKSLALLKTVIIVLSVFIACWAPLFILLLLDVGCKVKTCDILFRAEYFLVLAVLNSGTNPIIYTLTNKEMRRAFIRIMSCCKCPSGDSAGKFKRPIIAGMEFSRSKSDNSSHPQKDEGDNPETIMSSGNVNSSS

EC50: 22.9 nM
Compound: Cc1ccc(-c2nnc(SC(C)c3ccc(CN4CC(C(=O)O)C4)cc3)o2)cc1C (stereo not shown) [Compound 1, 1-[4-(1-{[5-(3,4-Dimethylphenyl)-1,3,4-oxadiazol-2-yl]thio}ethyl)benzyl]azetidine-3-carboxylic acid]
